Data taken from patent publication US20170003277A1 (priority 2015, published 2017).
Where “and” joins values, the source holds several entries; their conditions need not be identical. Equal entries are not always repeated. Where two headings read alike, the source gives them in different places.

Tests used:
[1] = test system: THP-1 human monocyte cell line; test: Pathway enrichment (DAVID) in THP-1 cells, Example 9; assay type: cell-based; conditions: genes upregulated vs mannitol, 6 hours
Procedure: Nucleic Acids Res. 37, 1-13 (2009)]. Pathway enrichment results were visualized using volcano plots, plotting −log p-values versus enrichment scores. For GA MOA, to obtain top-gene lists of appropriate size (tens-hundreds) for use with DAVID, an absolute-value fold-change cutoff of 1.5 and p-value cutoff of 1e-3 were utilized to obtain gene lists for pathway enrichment. […] DAVID runs were conducted on Sep. […] Please note that the GO databases are updated daily (as noted on the GO site:www.geneontology.org/GO.downloads.ontology.shtml) and therefore performing the same enrichments on the same genesets may yield slightly varying results depending on the rundate. Pathway p-values may change slightly between runs conducted at different times; the overall picture of enriched pathways, however, is expected to remain consistent.
Performing the same enrichments on the same genesets may yield slightly varying results depending on the run date (GO databases are updated daily: www.geneontology.org/GO.downloads.ontology.shtml).

[2] = test system: THP-1 human monocyte cell line; assay type: cell-based; conditions: for Number of genes significantly modulated by Copaxone relative to mannitol: FDR-adjusted p<0.05
Procedure: Prior to treatment cells were passed and plated in a 6-well plate at a concentration of 1.0×10^6 cells/mL. Cells were allowed to recover for four hours after passage (prior to treatment). […] Each sample was analyzed in six replicates. Cells were treated for 6, 12, and 24 hours. Following treatment time cells were lysed using a Qiagen® based lysis kit. Prior to RNA isolation samples were randomized in order to avoid batch effect. Total RNA was isolated using Qiagen® RNeasy kit. RNA quality was assessed by determining the absorbance ratio 260/280 nm as well as electrophoresis bioanalyzer with 260/280 ratio of 1.9-2.1 and RIN of above 9 were deemed acceptable. Gene expression was measured using Affymetrix® U133 plus 2.0 format. Sample processing was executed according to established manufacturer protocols. The scheme in (FIG. 2) illustrates the general experimental outline.
RNA from THP-1 cells was extracted and expression profiled across the entire genome using the Affymetrix Human Genome U133 Plus 2.0 chip, interrogating a total of over 47,000 transcripts. Four batches of Copaxone® and one batch of Probioglat were comparatively tested in six biological replicates each. Key identified genes were independently evaluated for level of gene expression by quantitative Real-Time PCR of samples collected in the same experiments.
mRNA expression levels were compared between GA and control (mannitol) tested with 6 sample replicates for each of 4 batches of GA and for mannitol, using LIMMA (Sim et al., Nat. Biotechnol. 2011) (Methods). […] We chose 6h for initial downstream analysis since this timepoint reflects the greatest impact of treatment. […] Rather, this decrease in number of genes affected from early to later timepoints represents an attribute of the response of the cells to the drug.
To identify differences between branded GA and differently manufactured glatiramoids, differential gene expression analysis was performed to compare directly between profiles induced by branded GA and by the purported generic glatiramoid, Probioglat. The standard R LIMMA bioconductor package was utilized to measure differentially expressed probesets across the entire microarray. To compare GA and Probioglat, comparisons were corrected to compare each treatment relative to mannitol control (i.e., [GA vs mannitol] was compared via LIMMA to [Probioglat vs mannitol]). Probesets were filtered by calls of presence on the chip for the relevant samples in the comparison (to be considered present at a given timepoint, a probeset was required to have on average a call of present or marginal across the relevant samples at that timepoint). Probesets were mapped to genes using the annotation available for the U133 Plus 2.0 chip from Affymetrix. FDR adjusted p values reported for genes represent the lowest FDR adjusted p value for present probesets for that gene.

[3] = cited from earlier work
[4] = assay type: in vivo, human
Description: The Teva Patient Support Program in Mexico has an extensive database. Given that patients can switch between branded and purported generic GA, all patients are kept within the database and are provided with patient support services.
The number of relapses reported by patients in Teva's Patient Support Program on a monthly basis during the years 2012 and 2013 i. It is again clear that when Copaxone alone was in use (i.e. throughout 2012) the overall, as well as per-month number of relapses was lower than that reported when Probioglat was present in the market (i.e. throughout 2013).
These findings have identified significant differences that warrant further investigation, especially in light of the observed clinical effects of Probioglat's introduction. The Teva Patient Support Program in Mexico records numbers of adverse events, including during the years 2012 and 2013 (Table 31; FIG. 46), for which a similar number of patients were tracked (1618 patients in 2012; 1552 in 2013). Probioglat was first introduced in January 2013; subsequently, each time a patient's prescription was filled, it could be with either Probioglat or GA. […] The gene-expression differences observed herein warrant careful investigation, through studies comparing GA to candidate generics in meaningful settings, most comprehensively including clinical trials.

[5] = 6 hr, FDR p < 1e−5, |FC| >= 1.3
[6] = 6 hr, FDR p < 1e−5, |FC| >= 1.5
[7] = 6 hr, nominal p < 0.05, vs mannitol
[8] = 12 hr, FDR p < 1e−5, |FC| >= 1.3
[9] = 12 hr, FDR p < 1e−5, |FC| >= 1.5
[10] = 24 hr, FDR p < 1e−5, |FC| >= 1.3
[11] = 24 hr, FDR p < 1e−5, |FC| >= 1.5

glatiramer acetate [Copaxone®]
Fold Enrichment ([1]; GO:0001503~ossification (GOTERM BP_ALL)): 4.068 | Fold Enrichment ([1]; GO:0007204~elevation of cytosolic calcium ion concentration (GOTERM BP_ALL)): 4.773 | Fold Enrichment ([1]; GO:0010557~positive regulation of macromolecule biosynthetic process (GOTERM BP_ALL)): 1.871 | Fold Enrichment ([1]; GO:0010628~positive regulation of gene expression (GOTERM BP_ALL)): 1.936 | Fold Enrichment ([1]; GO:0051241~negative regulation of multicellular organismal process (GOTERM BP_ALL)): 3.649 | raw.FC 202434_s_at CYP1B1 [2]: 2.203 | raw.FC 202435_s_at CYP1B1 [2]: 1.96 | raw.FC 202436_s_at CYP1B1 [2]: 2.027 | raw.FC 202437_s_at CYP1B1 [2]: 1.809 | IL1RN fold change (FC), all present probesets ([2]; 6h, GA vs mannitol, listed as GA): 1.43 and 1.35 and 1.26 | Number of genes significantly modulated by Copaxone relative to mannitol ([2]; 6 hour): 6,890 | IL10 fold change (FC) ([2]; 6 hour, GA vs mannitol): 1.52 | Number of genes Down-regulated by GA ([2]; 6 hr, FDR p < 0.05): 4066 | Number of genes Up-regulated by GA ([2]; 6 hr, FDR p < 0.05): 2824 | Number of genes Down-regulated by GA [2, 5]: 508 | Number of genes Up-regulated by GA [2, 5]: 557 | Number of genes Down-regulated by GA [2, 6]: 119 | Number of genes Up-regulated by GA [2, 6]: 257 | Number of genes Down-regulated by GA [2, 7]: 4909 | Number of genes Up-regulated by GA [2, 7]: 3511 | Number of genes significantly modulated by Copaxone relative to mannitol ([2]; 12 hours): 3,118 | Number of genes Down-regulated by GA ([2]; 12 hr, FDR p < 0.05): 1810 | Number of genes Up-regulated by GA ([2]; 12 hr, FDR p < 0.05): 1308 | Number of genes Down-regulated by GA [2, 8]: 50 | Number of genes Up-regulated by GA [2, 8]: 210 | Number of genes Down-regulated by GA [2, 9]: 10 | Number of genes Up-regulated by GA [2, 9]: 68 | Number of genes Down-regulated by GA ([2]; 12 hr, nominal p < 0.05): 3430 | Number of genes Up-regulated by GA ([2]; 12 hr, nominal p < 0.05): 2377 | Number of genes significantly modulated by Copaxone relative to mannitol ([2]; 24 hours): 1,791 | Number of genes Down-regulated by GA ([2]; 24 hr, FDR p < 0.05): 1185 | Number of genes Up-regulated by GA ([2]; 24 hr, FDR p < 0.05): 606 | Number of genes Down-regulated by GA [2, 10]: 6 | Number of genes Up-regulated by GA [2, 10]: 57 | Number of genes Down-regulated by GA [2, 11]: 0 | Number of genes Up-regulated by GA [2, 11]: 15 | Number of genes Down-regulated by GA ([2]; 24 hr, nominal p < 0.05): 3724 | Number of genes Up-regulated by GA ([2]; 24 hr, nominal p < 0.05): 1410 | CCL2 expression relative to mannitol control ([2]; THP-1, 6 hours): decreased | CD14 expression versus mannitol control ([2]; THP-1, 6 hours): not modulated | CD14 201743_at Copaxone Expression Value Range Maximum ([2]; THP-1, all Copaxone samples): 9.69 | CD14 201743_at Copaxone Expression Value Range Minimum ([2]; THP-1, all Copaxone samples): 9.32 | CISH 223377_x_at Copaxone Expression Value Range Maximum ([2]; THP-1, all Copaxone samples): 9.11 | CISH 223377_x_at Copaxone Expression Value Range Minimum ([2]; THP-1, all Copaxone samples): 8.86 | CISH 223961_s_at Copaxone Expression Value Range Maximum ([2]; THP-1, all Copaxone samples): 7.69 | CISH 223961_s_at Copaxone Expression Value Range Minimum ([2]; THP-1, all Copaxone samples): 7.24 | ICAM1 202637_s_at Copaxone Expression Value Range Maximum ([2]; THP-1, all Copaxone samples): 8.06 | ICAM1 202637_s_at Copaxone Expression Value Range Minimum ([2]; THP-1, all Copaxone samples): 7.44 | ICAM1 202638_s_at Copaxone Expression Value Range Maximum ([2]; THP-1, all Copaxone samples): 7.30 | ICAM1 202638_s_at Copaxone Expression Value Range Minimum ([2]; THP-1, all Copaxone samples): 6.51 | MMP9 203936_s_at Copaxone Expression Value Range Maximum ([2]; THP-1, all Copaxone samples): 9.97 | MMP9 203936_s_at Copaxone Expression Value Range Minimum ([2]; THP-1, all Copaxone samples): 9.53 | Adverse events leading to discontinuation ([3]; GATE study arm): 5 | Effect on annualized relapse rate (ARR) ([3]; GATE study, Copaxone arm (357) vs Placebo (84)): no effect in reducing ARR | Numbers of relapses reported ([4]; 2012, only branded GA marketed, 1618 patients): 8 | Adverse Event Rate (per month) ([4]; human, in vivo): 10.4 per month | Numbers of adverse events reported ([4]; human, in vivo): 125
